These results are taken from patent US20230158151A1 (NURIX THERAPEUTICS, INC., priority 2021, published 2023).

Data set [1] is described as follows: Mouse PK Analysis (plasma LC/MS/MS, noncompartmental PK parameters). To be noted: mouse; mice, oral administration, plasma. Further details: AUC(0-t): concentration or dose not given beside the values. The class given is in vivo. As to the method: Compounds 30 and 29 were administered to mice orally. After 6 hours or 24 hours, splenocytes cells were harvested. ITK was evaluated by Western blotting. Plasma concentrations were determined by LC/MS/MS. Plasma samples were protein precipitated by addition of 100 μl of acetonitrile containing 50 ng/ml of internal standard. The resulting mixture was vortexed and centrifuged at 4000 RPM for 5 minutes. An aliquot of the resultant supernatant (75 μl) was added to 75 μl of 0.1% formic acid in water to constitute the final sample for injection. Samples were injected on a Shimadzu Exion LC Binary Gradient AD Pump HLPC system connected to a Sciex QTRAP 6500+ mass spectrometer. Five μl of sample was injected onto a Waters Acquity UPLC BEH C18 column 130A (2.1×30 mm, […]) at 40° C. utilizing a flow rate of 700 μl/minute. Mobile Phase A was 0.1% formic acid in water and mobile phase B was 0.1% formic acid in acetonitrile. A linear gradient of 15-95% B over 1.0 minute was used. The mass spectrometer was operated in positive ion electrospray mode with multiple reaction monitoring for maximum sensitivity. Sciex Analyst software (version 1.6.3) was used for LC/MS/MS instrument control and acquisition. Compound concentration was determined against a standard curve of internal standard versus compound peak area ratio. Noncompartmental PK parameters were determined using Phoenix 32 software (version 8.2.0.4383) from Certara. Plasma concentrations from the LC/MS/MS analyses, dose, route of administration, and desired units were utilized for PK parameter calculations. […] FIG. 3C provides the concentration over time of compound 30 following in vivo oral administration in the 6 hour and 24 hour assays.
Cmax, Tmax and AUClast were all calculated using a WinNonLin Phoenix 64 v 8.2.0.4383. Using non-compartmental analysis, Tmax, Cmax and AUClast were determined as follows:
Tmax—Time of maximum observed concentration. Cmax—Maximum observed concentration, occurring at time Tmax, as defined above. AUClast—Area under the curve from the time of dosing to the time of the last measurable (positive) concentration (Tlast).

Data set [2] concerns the target T1, ITK (Homo sapiens, UniProt Q08881).
T1 construct: Compounds provided herein were assayed in vitro with ITK HiBit cell lines; endogenous in cells; host or cells: Molt4 (ATCC CRL-1552 [sic]), monoclonal clone 1C10
T1 sequence (Q08881 1-620): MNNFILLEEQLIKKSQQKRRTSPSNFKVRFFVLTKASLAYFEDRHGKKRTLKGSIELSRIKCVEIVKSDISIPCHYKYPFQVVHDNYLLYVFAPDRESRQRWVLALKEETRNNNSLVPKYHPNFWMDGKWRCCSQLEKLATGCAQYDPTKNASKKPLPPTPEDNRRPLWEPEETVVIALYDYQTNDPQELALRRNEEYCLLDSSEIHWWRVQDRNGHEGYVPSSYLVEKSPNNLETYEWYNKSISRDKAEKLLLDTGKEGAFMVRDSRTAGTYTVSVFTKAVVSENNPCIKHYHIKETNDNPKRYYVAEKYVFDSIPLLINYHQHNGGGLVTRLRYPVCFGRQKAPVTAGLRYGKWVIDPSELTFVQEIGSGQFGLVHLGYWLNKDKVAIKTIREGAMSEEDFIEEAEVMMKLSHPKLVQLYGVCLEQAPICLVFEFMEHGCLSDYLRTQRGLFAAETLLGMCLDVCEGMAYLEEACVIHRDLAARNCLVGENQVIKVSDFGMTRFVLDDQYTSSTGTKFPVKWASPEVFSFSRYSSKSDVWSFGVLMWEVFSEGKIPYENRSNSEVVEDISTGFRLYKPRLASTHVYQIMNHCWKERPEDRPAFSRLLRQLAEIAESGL
As to the kind of experiment: ITK Degradation HiBiT Assay. It counts as cell-based.

Where [3] appears, read: C-terminal HiBiT-tagged Molt4 cells, 4 hrs incubation.
The mark [4] stands for this setting: MOLT-4, C-terminal HiBiT-tagged Molt4 cells, 4 hrs incubation, read-out: HiBiT DMax (%).

Like-named read-outs stand apart in the source and are kept apart here.

As for `CC1(C)CCc2c(-c3cc4ccc(C(=O)N5CCN(CC6CCN(c7ccc(C8CCC(=O)NC8=O)cc7)CC6)CC5)cc4[nH]3)n[nH]c2C1` (stereo not shown) [Compound 38, 3-(4-(4-((4-(2-(6,6-dimethyl-4,5,6,7-tetrahydro-1H-indazol-3-yl)-1H-indole-6-carbonyl)piperazin-1-yl)methyl)piperidin-1-yl)phenyl)piperidine-2,6-dione], in data set [1], the AUC(0-t) – broadly, the area under the concentration-time curve up to a stated or last time point – turned out to be 150 µM·h; the Cmax – broadly, the highest concentration seen after dosing – came out at 11 µM; the Tmax (commonly the time at which the peak concentration occurs) was found to be 3.3 h. Besides, in data set [2] (setting [3]), half-maximal degradation (DC50) was put at 1.5 nM. Further, the Dmax (as a rule, the largest share of the target that was removed) in data set [2] (setting [4]) was found to be 74%.

Regarding `CC1(C)CCc2c(-c3cc4ccc(C(=O)N5CCC(CN6CCC(c7ccc(C8CCC(=O)NC8=O)cc7)CC6)CC5)cc4[nH]3)n[nH]c2C1` (stereo not shown) [Compound 39, 3-(4-(1-((1-(2-(6,6-dimethyl-4,5,6,7-tetrahydro-1H-indazol-3-yl)-1H-indole-6-carbonyl)piperidin-4-yl)methyl)piperidin-4-yl)phenyl)piperidine-2,6-dione], in data set [1], the AUC(0-t) was determined as 3.9 µM·h, the peak level (Cmax) was 0.3 µM and the Tmax amounted to 6 h. Further, in data set [2] (setting [3]), half-maximal degradation (DC50) was put at 0.09 nM. In data set [2] (setting [4]), the Dmax was determined as 82%.

In the case of `C[C@@H](C(=O)N(C)c1ccc2cc(-c3n[nH]c4c3CCC(C)(C)C4)[nH]c2c1)N1CCN(CC2CCN(c3ccc(C4CCC(=O)NC4=O)cn3)CC2)CC1` (stereo partly drawn) [Compound 32, (2S)—N-(2-(6,6-dimethyl-4,5,6,7-tetrahydro-1H-indazol-3-yl)-1H-indol-6-yl)-2-(4-((1-(5-(2,6-dioxopiperidin-3-yl)pyridin-2-yl)piperidin-4-yl)methyl)piperazin-1-yl)-N-methylpropanamide], in data set [1], the AUC(0-t) was found to be 22.7 µM·h, the peak concentration (Cmax) was determined as 1.62 µM and the Tmax came out at 6 h. Further, in data set [2] (ITK degradation in HiBiT cell line, FIG. 1, read-out: Dmax values (FIG. 1)), the Dmax fell in the range of 90 to 100%. Moreover, in data set [2] (setting [4]), the Dmax worked out at 89%.

Regarding `CC1(C)CCc2c(-c3cc4ccc(C(=O)N5CCN(CC6CCN(c7ccc(C8CCC(=O)NC8=O)cn7)CC6)CC5)cc4[nH]3)n[nH]c2C1` (stereo not shown) [Compound 26, 3-(6-(4-((4-(2-(6,6-dimethyl-4,5,6,7-tetrahydro-1H-indazol-3-yl)-1H-indole-6-carbonyl)piperazin-1-yl)methyl)piperidin-1-yl)pyridin-3-yl)piperidine-2,6-dione], in data set [1], the AUC(0-t) was determined as 36.5 µM·h, the concentration peaked (Cmax) at 7.11 µM and the Tmax is 6 h. For the same compound, in data set [2] (setting [4]), the Dmax was 87%.
